Five compounds from ChEMBL document CHEMBL1201862, “PubChem BioAssay data set” (2004) can be followed below.

SMILES strings stand for the structures.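 All cell lines were grown in 96-well plates and treated with compound for 48 hours. GI50 marks 50% less growth.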 Calls of active or inactive are those of the source. Cut-off read from the data, not from the text of the source: active = GI50 up to about 1.1 µM and inactive = higher.

Experiment in all cases: DTP human tumour cell line panel, 48 h
Assay [1] concerns RPMI-8226.
In assay [2] the test system is SF-539.
Assay [3] deals with SF-268.
Assay [4] concerns SK-MEL-5.
The test system of assay [5] is OVCAR-5.
Assay [6] concerns COLO 205.
The test system of assay [7] is SK-MEL-2.
The subject of assay [8] is A549.
Assay [9] has as its system NCI-H23.
For assay [10], the system named is CAKI-1.
The subject of assay [11] is UO-31.
Assay [12] has as its system HCT-15.
Assay [13] relates to SK-MEL-28.
In assay [14] the test system is K562.
Assay [15] has as its system 786-0.
Assay [16] concerns HCC 2998.
Assay [17] concerns RXF 393.
Assay [18] has as its system A498.

The term GI50 denotes the concentration at which growth is held to half of that of the control.

In the case of `C=C(C)C(=O)OC1C/C(CO)=C\C(O)C/C(C)=C/C2OC(=O)C(=C)C21` (stereo unspecified), the GI50 is 17.3 µM (inactive) in assay [1]; 21 µM (inactive) in [2]; 22.2 µM (inactive) in assay [3]; 21 µM (inactive) in assay [4]; 45.8 µM (inactive) in assay [5]; 17.1 µM (inactive) in assay [6]. Moreover, the GI50 is 17 µM (inactive) in [7]; 64.4 µM (inactive) in assay [8]; > 10 µM (inactive) in [9]; 22.8 µM (inactive) in [10]; > 100 µM (inactive) in [11]; 14.1 µM in assay [12]. The GI50 is 17.3 µM (inactive) in [13], 18 µM (inactive) in [14], 16 µM (inactive) in [15] and > 10 µM (inactive) in assay [16].

In the case of `NC(=S)N/N=C(\CC1OC(=O)c2ccccc21)c1ccc(Cl)cc1` (stereo unspecified), the GI50 in assay [1] was 75.3 µM (inactive); in assay [2] it was 20.8 µM (inactive); in [3], 36.8 µM (inactive); in assay [5], 92.9 µM (inactive); in [6], 38.6 µM (inactive); in [17], 25.1 µM (inactive). In addition, the GI50 in assay [8] was 48.2 µM (inactive); in [9], 25.2 µM (inactive); in assay [10], 36.3 µM (inactive); in assay [11] it was 24.9 µM (inactive); in assay [12], 39.8 µM; in assay [13], 45.8 µM (inactive). Further, the figures for the GI50 in assay [14], in assay [15] and in assay [16] were 84.1 µM (inactive), 43.4 µM (inactive) and 23.9 µM (inactive), respectively.

Regarding `Cc1ccc2nc(/C(=C/c3ccc(/C=C(\NC(=O)c4ccccc4)c4nc5ccc(C)cc5[nH]4)c(C)c3)NC(=O)c3ccccc3)[nH]c2c1`, the GI50 was 16.6 µM (inactive) in [1]; 10.2 µM (inactive) in [2]; 3.45 µM (inactive) in assay [3]; 1.91 µM (inactive) in [4]; 19.6 µM (inactive) in assay [5]; 25.1 µM (inactive) in assay [6]. Moreover, the GI50 in assay [7] is 5.13 µM (inactive); in assay [8], 6.14 µM (inactive); in assay [9], 19.7 µM (inactive); in [10], 35.2 µM (inactive); in [11], 9.12 µM (inactive); in assay [12] it was 3.13 µM. Also, the GI50 in assay [13] was 25.2 µM (inactive); in assay [14], 0.785 µM (active); in assay [18] it was 11.4 µM (inactive); in assay [15], 9.02 µM (inactive).

Regarding `C#CCC[C@@H]1O[C@@]1(C)CC/C=C(\C)CC/C=C/C=O`, the GI50 was 19.3 µM (inactive) in assay [1]; 18.2 µM (inactive) in assay [2]; 22.2 µM (inactive) in assay [3]; > 100 µM (inactive) in [5]; 26.7 µM (inactive) in assay [6]; 40.6 µM (inactive) in assay [17]. The GI50 in assay [7] is 55.7 µM (inactive); in assay [8] it was 43.6 µM (inactive); in assay [9], 29 µM (inactive); in assay [11], 35.8 µM (inactive); in assay [12], 35 µM; in [14], 22.6 µM (inactive). The GI50 in assay [15] is 73.5 µM (inactive).

Take `NNC(=O)N/N=C1/C(=O)N(c2ccc(Cl)c(Cl)c2)C(=O)C(=O)C1c1nc2ccccc2o1` (stereo unspecified): the GI50 in [2], in assay [3], in [4], in assay [5], in assay [6] and in assay [7] was > 100 µM (inactive) throughout. In addition, the GI50 in [8] is > 100 µM (inactive); in [9], > 100 µM (inactive); in [10], > 100 µM (inactive); in [11], > 100 µM (inactive); in assay [12], > 100 µM; in [13], > 100 µM (inactive). Further, the GI50 in assay [14], in assay [18], in assay [15] and in assay [16] was > 100 µM (inactive) in each case.
